{
  "source": "patent US4110327A",
  "about": "“2,3 Diketo-piperazinocarbonylamino alkanoic acids and derivatives” (Toyama Chemical Co., Ltd., priority 1974, dated 1978)",
  "key": {"Salmonella typhi": {"system": "Salmonella typhi", "experiment": "MIC against clinical isolates", "format": "cell-based", "conditions": "unit assumed"}, "Escherichia coli": {"system": "Escherichia coli", "experiment": "MIC against clinical isolates", "format": "cell-based", "conditions": "unit assumed"}, "Proteus morganii": {"system": "Proteus morganii", "experiment": "MIC against clinical isolates", "format": "cell-based", "conditions": "clinical isolate, unit assumed"}, "β-lactamase": {"system": "β-lactamase", "experiment": "Resistant activity against β-lactamase, iodometric assay", "format": "biochemical, Pseudomonas aeruginosa GN 238", "conditions": "relative to Potassium Penicillin G = 100", "description": "(3) Resistant activity against β-lactamase, Pseudomonas aergionan GN 238:\nThe resistant activity of each compound against β-lactamase was measured in the manner described below.\nβ-Lactamase was prepared from Pseudomonas aeruginosa GN 238. This microorganism was cultured in 100 ml of a medium containing 2 g of yeast extract, 10 g of polypeptone, 2 g of glucose, 7 g of disodium hydrogen phosphate, 2 g of potassium dihydrogen phosphate, 1.2 g of ammonium sulfate and 0.4 g of magnesium sulfate, per liter, in a 500-ml Erlenmeyer flask for 6 hrs. at 37° C with shaking. The resulting cells were collected by centrifugation (5,000 r.p.m. × 10 min.), washed three times with 0.1 M phosphate buffer (pH 7.0). Subsequently, the cells were subjected to sonication (20 KHz, 20 min.) and then centrifuged at 15,000 r.p.m. for 60 min. By using the supernatant of enzyme fluid, the resistance of each compound against β-lactamase was determined by the iodometric assay method. Each numeral shown in Table 7 is a relative activity value calculated by assuming as 100 the activity of the control Potassium Penicillin G."}, "[1]": {"system": "Staphylococcus aureus 209p", "experiment": "MIC against standard strain, plate method", "format": "cell-based", "conditions": "unit assumed", "outline": "(§1)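 Plate-method MIC. Medium: heart infusion agar, pH 7.4. Inoculum: 10^4 cells per plate (10^6 cells/ml).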"}, "Proteus vulgaris 3027": {"system": "Proteus vulgaris 3027", "experiment": "MIC against standard strain, plate method", "format": "cell-based", "conditions": "Proteus vulgaris 3027, standard strain; unit assumed", "outline": "as §1"}, "Escherichia coli NIHJ": {"system": "Escherichia coli NIHJ", "experiment": "MIC against standard strain, plate method", "format": "cell-based", "conditions": "unit assumed", "outline": "as §1"}, "[2]": {"system": "Pseudomonas aeruginosa I.F.O.", "experiment": "MIC against standard strain, plate method", "format": "cell-based", "conditions": "unit assumed", "outline": "as §1"}, "Klebsiella pneumoniae": {"system": "Klebsiella pneumoniae", "experiment": "MIC against clinical isolates", "format": "cell-based", "conditions": "unit assumed"}, "Staphylococcus aureus": {"system": "Staphylococcus aureus", "experiment": "MIC against clinical isolates", "format": "cell-based", "conditions": "unit assumed"}, "Proteus vulgaris": {"system": "Proteus vulgaris", "experiment": "MIC against clinical isolates", "format": "cell-based", "conditions": "clinical isolate, unit assumed"}, "Proteus rettgeri": {"system": "Proteus rettgeri", "experiment": "MIC against clinical isolates", "format": "cell-based", "conditions": "clinical isolate, unit assumed"}, "Salmonella typhi-murium": {"system": "Salmonella typhi-murium", "experiment": "MIC against clinical isolates", "format": "cell-based", "conditions": "unit assumed"}, "Proteus mirabilis": {"system": "Proteus mirabilis", "experiment": "MIC against clinical isolates", "format": "cell-based", "conditions": "clinical isolate, unit assumed"}, "Shigella sonnei": {"system": "Shigella sonnei", "experiment": "MIC against clinical isolates", "format": "cell-based", "conditions": "clinical isolate JS 11232; unit assumed", "description": "(§2) The minimum inhibitory concentrations (MIC) was determined by the plate method disclosed in \"Chemotherapy\" (Japan), Vol. 16, (1968), pages 98 - 99. The culture medium used was a Heart infusion agar (pH 7.4). The number of the cells per plate used in the inoculum as 10^4 (10^6 cells/ml).\n(§3) MIC was determined in the same manner as in the preceding paragraph (1)."}, "Shigella flexneri": {"system": "Shigella flexneri", "experiment": "MIC against clinical isolates", "format": "cell-based", "conditions": "clinical isolate JS 11215; unit assumed", "description": "as §2, §3"}, "Pseudomonas aeruginosa": {"system": "Pseudomonas aeruginosa", "experiment": "MIC against clinical isolates", "format": "cell-based", "conditions": "unit assumed"}},
  "data": [
    {"compound": "CCCN1CCN(C(=O)N[C@@H](C(=O)N[C@@H]2C(=O)N3[C@@H]2SC(C)(C)[C@@H]3C(=O)O)c2ccccc2)C(=O)C1=O", "note": "(single isomer, unassigned) [compound 38]", "values": [
      {"measurement": "MIC", "setting": "Salmonella typhi; clinical isolate SL 819", "value": 1.57, "unit": "µg/mL"},
      {"measurement": "MIC", "setting": "Salmonella typhi; clinical isolate SL 2169", "value": 0.79, "unit": "µg/mL"},
      {"measurement": "MIC", "setting": "Escherichia coli; clinical isolate GN 3435", "value": 0.79, "unit": "µg/mL"},
      {"measurement": "MIC", "setting": "Escherichia coli; clinical isolate GN 3465", "value": 50, "unit": "µg/mL"},
      {"measurement": "MIC", "setting": "Escherichia coli; clinical isolate GN 3611", "value": "> 200", "unit": "µg/mL"},
      {"measurement": "MIC", "setting": "Escherichia coli; clinical isolate K-3", "value": "> 200", "unit": "µg/mL"},
      {"measurement": "MIC", "setting": "Escherichia coli; clinical isolate K-4", "value": 0.79, "unit": "µg/mL"},
      {"measurement": "MIC", "setting": "Proteus morganii", "value": "< 0.4", "unit": "µg/mL"},
      {"measurement": "Relative activity", "setting": "β-lactamase", "value": 15, "unit": "%"},
      {"measurement": "MIC", "setting": "[1]", "value": 0.4, "unit": "µg/mL"},
      {"measurement": "MIC", "setting": "Proteus vulgaris 3027", "value": 0.4, "unit": "µg/mL"},
      {"measurement": "MIC", "setting": "Escherichia coli NIHJ", "value": "< 0.1", "unit": "µg/mL"},
      {"measurement": "MIC", "setting": "[2]", "value": 6.25, "unit": "µg/mL"},
      {"measurement": "MIC", "setting": "Klebsiella pneumoniae; clinical isolate GN 3850", "value": 6.25, "unit": "µg/mL"},
      {"measurement": "MIC", "setting": "Klebsiella pneumoniae; clinical isolate GN 4081", "value": 50, "unit": "µg/mL"},
      {"measurement": "MIC", "setting": "Klebsiella pneumoniae; clinical isolate GN 4117", "value": 50, "unit": "µg/mL"},
      {"measurement": "MIC", "setting": "Staphylococcus aureus; clinical isolate F-1", "value": 6.25, "unit": "µg/mL"},
      {"measurement": "MIC", "setting": "Staphylococcus aureus; clinical isolate F-3", "value": 0.79, "unit": "µg/mL"},
      {"measurement": "MIC", "setting": "Staphylococcus aureus; clinical isolate F-4", "value": 6.25, "unit": "µg/mL"},
      {"measurement": "MIC", "setting": "Staphylococcus aureus; clinical isolate F-5", "value": "> 200", "unit": "µg/mL"},
      {"measurement": "MIC", "setting": "Staphylococcus aureus; clinical isolate MS 8619", "value": 0.79, "unit": "µg/mL"},
      {"measurement": "MIC", "setting": "Staphylococcus aureus; clinical isolate MS 8713", "value": 6.25, "unit": "µg/mL"},
      {"measurement": "MIC", "setting": "Proteus vulgaris", "value": "< 0.4", "unit": "µg/mL"},
      {"measurement": "MIC", "setting": "Proteus rettgeri", "value": 12.5, "unit": "µg/mL"},
      {"measurement": "MIC", "setting": "Salmonella typhi-murium; clinical isolate SL 858", "value": 3.13, "unit": "µg/mL"},
      {"measurement": "MIC", "setting": "Salmonella typhi-murium; clinical isolate SL 2136", "value": 200, "unit": "µg/mL"},
      {"measurement": "MIC", "setting": "Proteus mirabilis", "value": "< 0.4", "unit": "µg/mL"},
      {"measurement": "MIC", "setting": "Shigella sonnei", "value": 50, "unit": "µg/mL"},
      {"measurement": "MIC", "setting": "Shigella flexneri", "value": 25, "unit": "µg/mL"},
      {"measurement": "MIC", "setting": "Pseudomonas aeruginosa; clinical isolate GN 221", "value": 6.25, "unit": "µg/mL"},
      {"measurement": "MIC", "setting": "Pseudomonas aeruginosa; clinical isolate GN 383", "value": 6.25, "unit": "µg/mL"},
      {"measurement": "MIC", "setting": "Pseudomonas aeruginosa; clinical isolate GN 1035", "value": 12.5, "unit": "µg/mL"},
      {"measurement": "MIC", "setting": "Pseudomonas aeruginosa; clinical isolate GN 2565", "value": 12.5, "unit": "µg/mL"},
      {"measurement": "MIC", "setting": "Pseudomonas aeruginosa; clinical isolate GN 2987", "value": 6.25, "unit": "µg/mL"},
      {"measurement": "MIC", "setting": "Pseudomonas aeruginosa; clinical isolate GN (number not given; Table 5-3)", "value": 6.25, "unit": "µg/mL"},
      {"measurement": "MIC", "setting": "Pseudomonas aeruginosa; clinical isolate S-1", "value": 12.5, "unit": "µg/mL"},
      {"measurement": "MIC", "setting": "Pseudomonas aeruginosa; clinical isolate S-2", "value": 12.5, "unit": "µg/mL"},
      {"measurement": "MIC", "setting": "Pseudomonas aeruginosa; clinical isolate S-3", "value": 12.5, "unit": "µg/mL"},
      {"measurement": "MIC", "setting": "Pseudomonas aeruginosa; clinical isolate S-4", "value": 12.5, "unit": "µg/mL"}
    ]}
  ]
}
